Assay results reported in the supplement of paper PMC10307832.

How the values were obtained:
Assay in all cases: relative viability (nuclei count vs DMSO), 5 days (fraction); higher = more cells survive
Tosedostat + Trametinib = compound: CC(C)C[C@@H](C(=O)N[C@H](C(=O)OC1CCCC1)c1ccccc1)[C@H](O)C(=O)NO [Tosedostat] + CC(=O)Nc1cccc(-n2c(=O)n(C3CC3)c(=O)c3c(Nc4ccc(I)cc4F)n(C)c(=O)c(C)c32)c1 [Trametinib] (partner 0.02 µM)
In short: (§1)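 Values are medians from duplicate plates. Each reflects relative viability, defined as the nuclei count of treated wells over that of vehicle wells. Lung cancer cell lines in 1536-well plates were pin-tool dosed one day after seeding with one drug alone or with a fixed anchor-drug dose plus five library-drug doses (not always all listed) in √10 steps, then fixed, stained and imaged at 4× after 5 days.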

[1] = compound: CC1=NN=C(O1)C2=NN=C(C=C2)N3CCC(CC3)OC4=C(C=CC(=C4)F)Cl + Nc1nc2[nH]cc(CCc3ccc(C(=O)N[C@@H](CCC(=O)O)C(=O)O)cc3)c2c(=O)[nH]1 [Pemetrexed] (partner 0.2 µM)
In short: as §1

Tosedostat + Crizotinib = compound: CC(C)C[C@@H](C(=O)N[C@H](C(=O)OC1CCCC1)c1ccccc1)[C@H](O)C(=O)NO [Tosedostat] + C[C@@H](Oc1cc(-c2cnn(C3CCNCC3)c2)cnc1N)c1c(Cl)ccc(F)c1Cl [Crizotinib] (partner 1 µM)
In short: as §1

[2] = compound: CC1=NN=C(O1)C2=NN=C(C=C2)N3CCC(CC3)OC4=C(C=CC(=C4)F)Cl + CC(C)C[C@H](NC(=O)[C@H](Cc1ccccc1)NC(=O)c1cnccn1)B(O)O [Bortezomib] (partner 0.002 µM)
In short: as §1

UMC-11
relative viability (Tosedostat + Trametinib; first compound 0.02 µM): 0.863 | relative viability (Tosedostat + Trametinib; first compound 0.06325 µM): 0.681 | relative viability (Tosedostat + Trametinib; first compound 0.2 µM): 0.663 | relative viability (Tosedostat + Trametinib; first compound 0.6325 µM): 0.855 | relative viability (Tosedostat + Trametinib; first compound 2 µM): 0.664 | relative viability ([1]; first compound 0.253 µM): 0.504 | relative viability ([1]; first compound 0.8 µM): 0.535 | relative viability ([1]; first compound 2.53 µM): 0.518 | relative viability ([1]; first compound 8 µM): 0.37 | relative viability (Tosedostat + Crizotinib; first compound 0.02 µM): 0.688 | relative viability (Tosedostat + Crizotinib; first compound 0.06325 µM): 0.648 | relative viability (Tosedostat + Crizotinib; first compound 0.2 µM): 0.6 | relative viability (Tosedostat + Crizotinib; first compound 0.6325 µM): 0.559 | relative viability (Tosedostat + Crizotinib; first compound 2 µM): 0.459 | relative viability ([2]; first compound 0.253 µM): 0.66 | relative viability ([2]; first compound 0.8 µM): 0.533 | relative viability ([2]; first compound 2.53 µM): 0.636 | relative viability ([2]; first compound 8 µM): 0.575
